Source: paper PMC5552351, “Bacteriological profiling of diphenylureas as a novel class of antibiotics against methicillin-resistant Staphylococcus aureus” (PLoS ONE, 2017)
Values after ≈ are worked out from the molar mass of the structure shown.

Experiments:
VRS4 = assay: broth microdilution MIC/MBC; type: cell-based; conditions: Staphylococcus aureus, VRS4, vancomycin-resistant S. aureus; for MBC: read-out: MBC; for MIC: read-out: MIC
Procedure: (§1) The broth microdilution assay was employed to determine the MIC of compounds 1, 2, and vancomycin against five MRSA strains, four VRSA strains, one highly mupirocin-resistant S. aureus strain, one biofilm-forming S. aureus (ATCC 6538) strain, and one biofilm-forming methicillin-resistant S. epidermidis strain, as per the guidelines of the Clinical and Laboratory Standards Institute (CLSI). […] The MBC was determined by plating an aliquot (5 μL) from wells with no growth onto TSA plates. Plates were incubated at 37 °C for 19 hours before recording the MBC (concentration where no growth was observed on TSA plates).

MRSA NRS384 (USA300) = assay: broth microdilution MIC/MBC; type: cell-based; conditions: Staphylococcus aureus, MRSA NRS384 (USA300); for MBC: read-out: MBC; for MIC: read-out: MIC
Procedure: as §1

VRS11a = assay: broth microdilution MIC/MBC; type: cell-based; conditions: Staphylococcus aureus, VRS11a, vancomycin-resistant S. aureus; for MBC: read-out: MBC; for MIC: read-out: MIC
Procedure: as §1

MRSA NRS483 (USA1000) = assay: broth microdilution MIC/MBC; type: cell-based; conditions: Staphylococcus aureus, MRSA NRS483 (USA1000); for MBC: read-out: MBC; for MIC: read-out: MIC
Procedure: as §1

MRSA NRS387 (USA800) = assay: broth microdilution MIC/MBC; type: cell-based; conditions: Staphylococcus aureus, MRSA NRS387 (USA800); for MBC: read-out: MBC; for MIC: read-out: MIC
Procedure: as §1

MRSA NRS484 (USA1100) = assay: broth microdilution MIC/MBC; type: cell-based; conditions: Staphylococcus aureus, MRSA NRS484 (USA1100); for MBC: read-out: MBC; for MIC: read-out: MIC
Procedure: as §1

VRS7 = assay: broth microdilution MIC/MBC; type: cell-based; conditions: Staphylococcus aureus, VRS7, vancomycin-resistant S. aureus; for MBC: read-out: MBC; for MIC: read-out: MIC
Procedure: as §1

VRS10 = assay: broth microdilution MIC/MBC; type: cell-based; conditions: Staphylococcus aureus, VRS10, vancomycin-resistant S. aureus; for MBC: read-out: MBC; for MIC: read-out: MIC
Procedure: as §1

S. aureus NRS107 = assay: broth microdilution MIC/MBC; type: cell-based; conditions: Staphylococcus aureus, S. aureus NRS107; for MBC: read-out: MBC; for MIC: read-out: MIC
Procedure: as §1

MRSA NRS123 (USA400) = assay: broth microdilution MIC/MBC; type: cell-based; conditions: Staphylococcus aureus, MRSA NRS123 (USA400); for MBC: read-out: MBC; for MIC: read-out: MIC
Procedure: as §1

[1] = system: clinically-relevant strains of MRSA and VRSA; assay: broth microdilution MIC/MBC, panel summary; type: cell-based; conditions: Staphylococcus aureus, summary over the MRSA isolates of Table 1; read-out: concentration inhibiting growth of MRSA isolates (MIC)
Procedure: as §1

[2] = system: human epithelial colorectal (Caco-2) cell line; assay: MTS cytotoxicity assay; type: cell-based; conditions: Caco-2, MTS assay, highest concentration tested
Procedure: Compounds 1 and 2 were assayed (at concentrations of 16 μg/mL, 32 μg/mL, 64 µg/mL, and 128 μg/mL) against a human epithelial colorectal (Caco-2) cell line (American Type Culture Collection, ATCC HTB-37) using the MTS assay. Cells were cultured in DMEM supplemented with penicillin-streptomycin, nonessential amino acids (1%), and FBS (10%), at 37 °C with CO2 (5%). The cells were incubated with compounds (in triplicate) or DMSO (negative control) in a 96-well tissue culture-treated plate at 37 °C with CO2 (5%) for two hours. The MTS assay reagent (Promega, Madison, WI, USA) was subsequently added to each well and plates were incubated for four hours at 37 °C with CO2 (5%). The quantity of viable cells (at OD490) after treatment was expressed as a percentage of the viability of DMSO-treated control cells (average of triplicate wells ± standard deviation). The toxicity data was analyzed via a two-way ANOVA, with post hoc Dunnet’s multiple comparisons test (n = 3, P < 0.05), utilizing GraphPad Prism 6.0 (GraphPad Software, La Jolla, CA).

MRSA USA400 (NRS123) [3] = assay: multi-step resistance selection; type: cell-based, Staphylococcus aureus; conditions: for increase in MIC after fourteen passages: MRSA USA400 (NRS123), fourteen passages over two weeks
Procedure: To assess MRSA’s ability to develop resistance to the diphenylurea compounds after repeated exposure, a multi-step resistance selection experiment was conducted. […] Resistance was classified as a greater than four-fold increase in the initial MIC, as reported elsewhere.

[4] = design: method as in PMID 28249208; conditions: human liver microsomes; ref [21]; cited from earlier work
MRSA USA400 (NRS123) [5] = assay: MIC in presence and absence of human serum albumin; type: cell-based, Staphylococcus aureus; conditions: for increase in MIC in the presence of HSA: MRSA USA400, 4% human serum albumin vs none; for MIC: Staphylococcus aureus, TSB
Procedure: The broth microdilution assay presented above was used to assess if compounds 1 and 2 bind to a major component of blood (human serum albumin) thus limiting the free fraction of drug available to exert its antibacterial effect. […] CaCl2 ([…]) was added to wells containing daptomycin, per the CLSI guidelines.

[6] = system: human keratinocyte cell line; design: method as in PMID 28249208; conditions: human keratinocytes; ref [21]; cited from earlier work
[7] = 4% human serum albumin, read-out: MIC vs. MRSA USA400 (+HSA)
[8] = without human serum albumin, read-out: MIC vs. MRSA USA400 (-HSA)

Compound	MBC (VRS4)	MIC (VRS4)	MBC (MRSA NRS384 (USA300))	MIC (MRSA NRS384 (USA300))	MBC (VRS11a)	MIC (VRS11a)	MBC (MRSA NRS483 (USA1000))	MIC (MRSA NRS483 (USA1000))	MBC (MRSA NRS387 (USA800))	MIC (MRSA NRS387 (USA800))	MBC (MRSA NRS484 (USA1100))	MIC (MRSA NRS484 (USA1100))	MBC (VRS7)	MIC (VRS7)	MBC (VRS10)	MIC (VRS10)	MBC (S. aureus NRS107)	MIC (S. aureus NRS107)	MBC (MRSA NRS123 (USA400))	MIC (MRSA NRS123 (USA400))	also measured
C/C(=N\NC(=N)N)c1ccc(NC(=O)Nc2ccc(OCCC(C)C)cc2)cc1 [compound 1]	8 µg/mL (≈ 20.2 µM)	8 µg/mL (≈ 20.2 µM)	4 µg/mL (≈ 10.1 µM)	4 µg/mL (≈ 10.1 µM)	4 µg/mL (≈ 10.1 µM)	4 µg/mL (≈ 10.1 µM)	4 µg/mL (≈ 10.1 µM)	4 µg/mL (≈ 10.1 µM)	4 µg/mL (≈ 10.1 µM)	4 µg/mL (≈ 10.1 µM)	8 µg/mL (≈ 20.2 µM)	8 µg/mL (≈ 20.2 µM)	8 µg/mL (≈ 20.2 µM)	8 µg/mL (≈ 20.2 µM)	4 µg/mL (≈ 10.1 µM)	4 µg/mL (≈ 10.1 µM)	4 µg/mL (≈ 10.1 µM)	4 µg/mL (≈ 10.1 µM)	4 µg/mL (≈ 10.1 µM)	4 µg/mL (≈ 10.1 µM)	MIC [1]: ≥ 4 µg/mL; non-toxic up to (concentration) [2]: ≥ 128 µg/mL; increase in MIC after fourteen passages (MRSA USA400 (NRS123) [3]): No increase; MIC (MRSA USA400 (NRS123) [3]; Staphylococcus aureus, read-out: initial MIC): 8 µg/mL (≈ 20.2 µM); intrinsic half-life [4]: exceeded four hours; increase in MIC in the presence of HSA (MRSA USA400 (NRS123) [5]): seven-fold; MIC (MRSA USA400 (NRS123) [5]; [7]): 32 µg/mL (≈ 80.7 µM); MIC (MRSA USA400 (NRS123) [5]; [8]): 4 µg/mL (≈ 10.1 µM); non-toxic up to (concentration) [6]: 32 µg/mL
C/C(=N\NC(=N)N)c1ccc(NC(=O)Nc2ccc(OC3CCCCCC3)cc2)cc1 [compound 2]	16 µg/mL (≈ 37.9 µM)	16 µg/mL (≈ 37.9 µM)	16 µg/mL (≈ 37.9 µM)	8 µg/mL (≈ 18.9 µM)	8 µg/mL (≈ 18.9 µM)	8 µg/mL (≈ 18.9 µM)	16 µg/mL (≈ 37.9 µM)	16 µg/mL (≈ 37.9 µM)	16 µg/mL (≈ 37.9 µM)	8 µg/mL (≈ 18.9 µM)	16 µg/mL (≈ 37.9 µM)	16 µg/mL (≈ 37.9 µM)	16 µg/mL (≈ 37.9 µM)	16 µg/mL (≈ 37.9 µM)	8 µg/mL (≈ 18.9 µM)	4 µg/mL (≈ 9.47 µM)	8 µg/mL (≈ 18.9 µM)	8 µg/mL (≈ 18.9 µM)	8 µg/mL (≈ 18.9 µM)	8 µg/mL (≈ 18.9 µM)	MIC [1]: ≥ 4 µg/mL; non-toxic up to (concentration) [2]: ≥ 128 µg/mL; increase in MIC after fourteen passages (MRSA USA400 (NRS123) [3]): No increase; intrinsic half-life [4]: exceeded four hours; increase in MIC in the presence of HSA (MRSA USA400 (NRS123) [5]): 15 fold; MIC (MRSA USA400 (NRS123) [5]; [7]): 128 µg/mL (≈ 303 µM); MIC (MRSA USA400 (NRS123) [5]; [8]): 8 µg/mL (≈ 18.9 µM); non-toxic up to (concentration) [6]: 64 µg/mL
